Entries after “also recorded” stand apart in the source; their conditions may differ. Like-named read-outs stand apart in the source and are kept apart here.
Experiments:
NF-κB [1] = assay: TNF-α induced NF-κB luciferase reporter assay in C2C12 myotubes; type: cell-based; details: 0.0001-10μM, TNF-α 10ng/ml
C2C12 myotubes = assay: MTT cell viability assay in C2C12 myotubes; details: for Myotubes % Cell Viability: MTT at respective IC50 concentration, relative to untreated controls
NF-κB [2] = assay: TNF-α induced NF-κB luciferase reporter assay in C2C12 myoblasts; type: cell-based; details: for NF-κB inhibition in myoblasts: 0.0001-10μM, TNF-α 10ng/ml; for Luciferase activity (reduced to): 1μg/ml, myoblasts
[3] = MTT cell viability assay in C2C12 myoblasts; details: mouse
NF-κB p65 = assay: Immunostaining for NF-κB p65 nuclear translocation in C2C12 myoblasts; type: cell-based; details: drug 1μg/ml 24 hours, then TNF-α 24 hours
[4] = MTT cell viability assay in C2C12 myotubes; details: mouse
[5] = 10mg/kg; cited from earlier work
NF-κB [6] = details: read-out: IC50, LPS-induced NF-κB; macrophage cell line; cited from earlier work
[7] = mdx mouse; 5mg/kg; cited from earlier work
NF-κB [8] = details: read-out: IC50, NF-κB inhibition; macrophage reporter cell line; cited from earlier work
[9] = mdx model; 1.2mg/kg; cited from earlier work
in vitro = details: mouse
C2C12 myoblasts = assay: MTT cell viability assay in C2C12 myoblasts; details: MTT at respective IC50 concentration; relative to untreated controls
NF-κB [10] = details: primary human peripheral blood and mononuclear cells; cited from earlier work
[11] = Myoblast, read-out: NF-κB inhibition luciferase activity, Mean ± SD

For CC(C)(C)c1ccc(S(=O)(=O)/C=C/C#N)cc1 [Bay 11-7085], the “NF-κB inhibition in myotubes (words)” value (NF-κB [1]; listed as BAY 11-7085) was “no inhibition”, the “NF-κB inhibition in myotubes (words)” value (NF-κB [1]; listed as Bay-11 7085) was “exhibited NF-κB inhibition” and the “Myotubes % Cell Viability” value (C2C12 myotubes) was 87.2%. For the same compound, the “NF-κB inhibition in myoblasts” value (NF-κB [2]) was “but not myoblasts”.

With CC1=C(O)C(=O)C=C2C1=CC=C1[C@@]2(C)CC[C@@]2(C)[C@@H]3C[C@](C)(C(=O)O)CC[C@]3(C)CC[C@]12C [Celastrol] the viability at 48 h [3] was 83.9%, the “NF-κB nuclear translocation (qualitative)” value (NF-κB p65) was “appeared to block nuclear translocation; also recorded: reduced the amount of nuclear translocation” and the Toxicity to myotubes (C2C12 myotubes; 10μg/ml, MTT) was 35%. The viability at 48 h [4] was 72.1%, the IC50 (NF-κB [2]; Mus musculus, C2C12, read-out: IC50 in myocytes) was about 0.001 µM and the Paw swelling [5] was “reduce paw swelling a similar amount as Prednisolone”. The IC50 (NF-κB [6]) was 0.27 µM.

For O=C(O[C@@H]1Cc2c(O)cc(O)cc2O[C@@H]1c1cc(O)c(O)c(O)c1)c1cc(O)c(O)c(O)c1 [EGCG, Epigallocatechin gallate], the “Muscle histology, force contractions and creatine kinase leakage” value [7] is listed as “improve mdx mouse muscle histology, force contractions and creatine kinase leakage”, the “NF-κB inhibition in myotubes (words)” value (NF-κB [1]) is listed as “did not inhibit NF-κB” and the “NF-κB inhibition in myoblasts” value (NF-κB [2]) is listed as “did not inhibit NF-κB”. The “NF-κB inhibition in myocytes, myoblasts and myotubes together” value (from here on “NF-κB inhibition in myocytes”) (NF-κB [2]) was “mostly ineffective” and the IC50 (NF-κB [8]) was 12 µM.

In the case of Cc1ccc(=O)n(-c2ccccc2)c1 [Pirfenidone], the Cardiac function [9] is listed as “improve cardiac function”, the “NF-κB inhibition in myotubes (words)” value (NF-κB [1]) is listed as “did not inhibit NF-κB” and the “NF-κB inhibition in myoblasts” value (NF-κB [2]) is listed as “did not inhibit NF-κB”. For the same compound, the “NF-κB inhibition in myocytes” value (NF-κB [2]) was “mostly ineffective”.

In the case of C[C@]12C=CC(=O)C=C1CC[C@@H]1[C@@H]2[C@@H](O)C[C@@]2(C)[C@H]1CC[C@]2(O)C(=O)CO [Prednisolone], the viability at 48 h ([3]; C2C12 myoblasts containing an NF-κB luciferase reporter) is reported as 78.8%, the “NF-κB nuclear translocation (qualitative)” value (NF-κB p65) is reported as “appeared to block nuclear translocation; also recorded: reduced the amount of nuclear translocation” and the inhibition at 0.1 µM (NF-κB [2]; [11]) is reported as 51.7 ± 13.6%. The inhibition at 1 µM (NF-κB [2]; [11]) was 79.2 ± 9.22%, the inhibition at 10 µM (NF-κB [2]; [11]) was 85.4 ± 4.59% and the “Luciferase activity (reduced to)” value (NF-κB [2]; long regime: 24 h pretreatment, 24 h TNF-α) was 38%. For the same compound, the “NF-κB inhibition in myocytes” value (NF-κB [2]) was “effective at inhibiting the NF-κB pathway”, the “Luciferase activity (reduced to)” value (NF-κB [2]; short regime: 30min pretreatment, 3hr TNF-α) was 49.5% and the viability at 48 h (in vitro) was 81.6%.

In the case of CC1=C(CO)C(=O)O[C@@H]([C@@H](C)[C@H]2CC[C@H]3[C@@H]4C[C@H]5O[C@]56[C@@H](O)C=CC(=O)[C@]6(C)[C@H]4CC[C@]23C)C1 [Withaferin], the “Myoblasts % Cell Viability” value (C2C12 myoblasts) is given as 61.1%, the Maximal effective dose (NF-κB [10]) is given as 1.0 mg/mL and the “Myotubes % Cell Viability” value (C2C12 myotubes) is given as 72.7%. The “NF-κB inhibition in myocytes” value (NF-κB [2]) was “effective at inhibiting NF-κB”.

With “Thymosin β4: small actin-sequestering protein that reduces inflammation and promotes healing in multiple tissues” the “NF-κB inhibition in myotubes (words)” value (NF-κB [1]) was “did not inhibit NF-κB”, the “NF-κB inhibition in myoblasts” value (NF-κB [2]) was “did not inhibit NF-κB” and the “NF-κB inhibition in myocytes” value (NF-κB [2]) was “mostly ineffective”.

From paper PMC2745946 (International immunopharmacology, 2009)
